Test results as given in the supplement of paper PMC10733146.

Assays:
Assay in all cases: viability relative to DMSO control (fraction); higher = less drug effect (more viable cells)
Conditions in all cases: 48 h
[1] = tested on: primary AML patient cells (S081)
Procedure, shortened: (§1)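 Cells were incubated for 48 h at 37 °C and 5% CO2 in RPMI-1640 with penicillin/streptomycin, L-glutamine and human serum, at 4 × 10^4 cells per well in 384-well plates with compounds pre-plated at five concentrations, one well each. These were primary mononuclear tumour cells, fresh or cryopreserved, Ficoll-isolated from blood or bone marrow or obtained from processed lymph node. Viability values are CellTiter-Glo luminescence relative to the median of 16 inner DMSO wells.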

[2] = tested on: primary B-PLL patient cells (S016)
Procedure, shortened: as §1

[3] = tested on: primary FL patient cells (S087)
Procedure, shortened: as §1

[4] = tested on: primary AML patient cells (S017)
Procedure, shortened: as §1

[5] = tested on: primary CLL patient cells (S031)
Procedure, shortened: as §1

[6] = tested on: primary MCL patient cells (S063)
Procedure, shortened: as §1

[7] = tested on: primary FL patient cells (S022)
Procedure, shortened: as §1

[8] = tested on: primary MCL patient cells (S053)
Procedure, shortened: as §1

[9] = tested on: primary AML patient cells (S021)
Procedure, shortened: as §1

[10] = tested on: primary MCL patient cells (S068)
Procedure, shortened: as §1

[11] = tested on: primary AML patient cells (S011)
Procedure, shortened: as §1

[12] = tested on: primary CLL patient cells (S043)
Procedure, shortened: as §1

[13] = tested on: primary AML patient cells (S012)
Procedure, shortened: as §1

[14] = tested on: primary AML patient cells (S056)
Procedure, shortened: as §1

[15] = tested on: primary BL patient cells (S005)
Procedure, shortened: as §1

[16] = tested on: primary AML patient cells (S085)
Procedure, shortened: as §1

[17] = tested on: primary ALL patient cells (S048)
Procedure, shortened: as §1

[18] = tested on: primary ALL patient cells (S088)
Procedure, shortened: as §1

[19] = tested on: primary AML patient cells (S060)
Procedure, shortened: as §1

[20] = tested on: primary AML patient cells (S006)
Procedure, shortened: as §1

Structure (SMILES): N#Cc1ccnc(N2C(=O)CC[C@H]2C(=O)N(c2cncc(F)c2)[C@H](C(=O)NC2CC(F)(F)C2)c2ccccc2Cl)c1 [AG-120]
- viability ([1]; 0.024 µM): 0.994
- viability ([1]; 0.12 µM): 1.01
- viability ([1]; 0.6 µM): 0.925
- viability ([1]; 3 µM): 1.11
- viability ([1]; 15 µM): 0.968
- viability ([2]; 0.024 µM): 1.16
- viability ([2]; 0.12 µM): 1.18
- viability ([2]; 0.6 µM): 1
- viability ([2]; 3 µM): 1.12
- viability ([2]; 15 µM): 0.86
- viability ([3]; 0.024 µM): 0.946
- viability ([3]; 0.12 µM): 0.984
- viability ([3]; 0.6 µM): 0.911
- viability ([3]; 3 µM): 1.01
- viability ([3]; 15 µM): 0.892
- viability ([4]; 0.024 µM): 1.04
- viability ([4]; 0.12 µM): 0.988
- viability ([4]; 0.6 µM): 1.16
- viability ([4]; 3 µM): 1.02
- viability ([4]; 15 µM): 0.908
- viability ([5]; 0.024 µM): 0.982
- viability ([5]; 0.12 µM): 0.912
- viability ([5]; 0.6 µM): 0.773
- viability ([5]; 3 µM): 0.807
- viability ([5]; 15 µM): 0.715
- viability ([6]; 0.024 µM): 1.16
- viability ([6]; 0.12 µM): 1.1
- viability ([6]; 0.6 µM): 0.929
- viability ([6]; 3 µM): 1.15
- viability ([6]; 15 µM): 0.789
- viability ([7]; 0.024 µM): 0.858
- viability ([7]; 0.12 µM): 0.833
- viability ([7]; 0.6 µM): 0.838
- viability ([7]; 3 µM): 0.905
- viability ([7]; 15 µM): 0.777
- viability ([8]; 0.024 µM): 0.945
- viability ([8]; 0.12 µM): 0.911
- viability ([8]; 0.6 µM): 0.593
- viability ([8]; 3 µM): 0.887
- viability ([8]; 15 µM): 0.641
- viability ([9]; 0.024 µM): 0.985
- viability ([9]; 0.12 µM): 0.875
- viability ([9]; 0.6 µM): 0.743
- viability ([9]; 3 µM): 0.761
- viability ([9]; 15 µM): 0.692
- viability ([10]; 0.024 µM): 0.995
- viability ([10]; 0.12 µM): 1.02
- viability ([10]; 0.6 µM): 0.898
- viability ([10]; 3 µM): 1.05
- viability ([10]; 15 µM): 1.18
- viability ([11]; 0.024 µM): 1.76
- viability ([11]; 0.12 µM): 0.843
- viability ([11]; 0.6 µM): 0.852
- viability ([11]; 3 µM): 0.785
- viability ([11]; 15 µM): 0.657
- viability ([12]; 0.024 µM): 0.819
- viability ([12]; 0.12 µM): 0.925
- viability ([12]; 0.6 µM): 0.925
- viability ([12]; 3 µM): 0.91
- viability ([12]; 15 µM): 0.837
- viability ([13]; 0.024 µM): 1.03
- viability ([13]; 0.12 µM): 1.06
- viability ([13]; 0.6 µM): 1.04
- viability ([13]; 3 µM): 0.987
- viability ([13]; 15 µM): 0.985
- viability ([14]; 0.024 µM): 0.866
- viability ([14]; 0.12 µM): 0.833
- viability ([14]; 0.6 µM): 0.72
- viability ([14]; 3 µM): 0.74
- viability ([14]; 15 µM): 0.577
- viability ([15]; 0.024 µM): 0.99
- viability ([15]; 0.12 µM): 1.02
- viability ([15]; 0.6 µM): 1.43
- viability ([15]; 3 µM): 1.01
- viability ([15]; 15 µM): 1.31
- viability ([16]; 0.024 µM): 1.07
- viability ([16]; 0.12 µM): 1
- viability ([16]; 0.6 µM): 0.959
- viability ([16]; 3 µM): 1.03
- viability ([16]; 15 µM): 0.886
- viability ([17]; 0.024 µM): 0.828
- viability ([17]; 0.12 µM): 0.865
- viability ([17]; 0.6 µM): 0.735
- viability ([17]; 3 µM): 1.01
- viability ([17]; 15 µM): 0.745
- viability ([18]; 0.024 µM): 0.727
- viability ([18]; 0.12 µM): 0.745
- viability ([18]; 0.6 µM): 0.533
- viability ([18]; 3 µM): 0.7
- viability ([18]; 15 µM): 0.499
- viability ([19]; 0.024 µM): 1.05
- viability ([19]; 0.12 µM): 1.1
- viability ([19]; 0.6 µM): 0.937
- viability ([19]; 3 µM): 1.16
- viability ([19]; 15 µM): 0.938
- viability ([20]; 0.024 µM): 1.07
- viability ([20]; 0.12 µM): 1.13
- viability ([20]; 0.6 µM): 0.986
- viability ([20]; 3 µM): 1.08
- viability ([20]; 15 µM): 0.901
